Source: patent publication US20150289513A1, “USE OF A COMPOUND COMPRISING A POLYFLUOROBENZYL MOIETY AGAINST INSECTICIDE-RESISTANT PESTS” (priority 2012, published 2015)

Legend:
Test in all cases: Glazed tile contact test, knock-down
Assay type in all cases: in vivo
[1] = system: Culex quinquefasciatus (metabolic-resistant to DDT; strain P00)
Method: (§1) To produce a suitable preparation Transfluthrin was dissolved in acetone. The active compound solution was pipetted onto a glazed tile and, after drying, adult mosquitoes of the species: • Anopheles gambiae (target-site-resistant and metabolic-resistant strain: RSPH), • Anopheles gambiae (target-site-resitant and metabolic-resistant strain: Tiassalé), • Anopheles gambiae (tar et-site-resitant and metabolic-resistant strain: Akron), • Anopheles gambiae (target-site-resistant strain: VK7), and • Anopheles funestus (metabolic-resistant strain FUMOZ-R) were placed onto the treated tile (each strain was tested on separate tiles). The exposition time was 30 minutes.
Similarly as outlined in example 2 for Transfluthrin, Metofluthrin efficacy was assessed against • Anopheles gambiae (target-site-resistant and metabolic-resistant strain: RSPH), • Anopheles funestus (metabolic-resistant strain FUMOZ-R), and • Culex quinquefasciatus (metabolic-resistant to DDT; strain P00), with the results shown in Tables 10 to 12. 0.25 hours, 0.5 hours, 1 hour, 2 hour, 3 hour, 4 hour and 24 hours after contact to the treated surface, the knock-down proportion of the test animals in % is depicted in Tables 10 to 12. 100% (effect) means that all mosquitoes have been killed; 0% (effect) means that none of the mosquitoes have been killed.

[2] = system: Anopheles gambiae (strain: Akron)
Method: as §1
(§2) 0.25 hours, 0.5 hours, 1 hour, 2 hour, 3 hour, 4 hour and 24 hours after contact to the treated surface, the knock-down proportion of the test animals in % was determined. Here, 100% (effect) means that all mosquitoes have been killed; 0% (effect) means that none of the mosquitoes have been killed.

[3] = system: Aedes aegypti (target-site-resistant strain: Grand Cayman)
Method: To produce a suitable preparation Transfluthrin was dissolved in acetone. The active compound solution was pipetted onto a glazed tile and, after drying, adult mosquitoes of the species Aedes aegypti (target-site-resistant strain: Grand Cayman) were placed onto the treated tile. The exposition time was 30 minutes.
as §2

[4] = 0.064 g/ha, 0.25 h after contact
[5] = 0.064 g/ha, 0.5 h after contact
[6] = 0.32 g/ha, 0.25 h after contact

Measured: Effect %

CC=CC1C(C(=O)OCc2c(F)c(F)c(COC)c(F)c2F)C1(C)C (centres unmarked) [Metofluthrin, 2,3,5,6-Tetrafluoro-4-(methoxymethyl)benzyl 2,2-dimethyl-3-(prop-1-en-1-yl)cyclopropanecarboxylate]
0%: [1]; 0.064 /ha, 0.25 h after contact | [1]; 0.064 /ha, 0.5 h after contact | [1]; 0.064 /ha, 1 h after contact | [1]; 0.064 /ha, 2 h after contact | [1]; 0.064 /ha, 3 h after contact | [1]; 0.064 /ha, 4 h after contact | [1]; 0.064 /ha, 24 h after contact | [1]; 0.32 /ha, 0.25 h after contact | [1]; 0.32 /ha, 0.5 h after contact | [1]; 0.32 /ha, 1 h after contact | [1]; 0.32 /ha, 2 h after contact | [1]; 0.32 /ha, 3 h after contact | [1]; 0.32 /ha, 4 h after contact
90%: [1]; 1.6 /ha, 0.25 h after contact
10%: [1]; 0.32 /ha, 24 h after contact
100%: [1]; 1.6 /ha, 0.5 h after contact | [1]; 1.6 /ha, 1 h after contact | [1]; 1.6 /ha, 2 h after contact | [1]; 1.6 /ha, 3 h after contact | [1]; 1.6 /ha, 4 h after contact | [1]; 1.6 /ha, 24 h after contact | [1]; 8 /ha, 0.25 h after contact | [1]; 8 /ha, 0.5 h after contact | [1]; 8 /ha, 1 h after contact | [1]; 8 /ha, 2 h after contact | [1]; 8 /ha, 3 h after contact | [1]; 8 /ha, 4 h after contact | [1]; 8 /ha, 24 h after contact | [1]; 40 /ha, 0.25 h after contact | [1]; 40 /ha, 0.5 h after contact | [1]; 40 /ha, 1 h after contact | [1]; 40 /ha, 2 h after contact | [1]; 40 /ha, 3 h after contact | [1]; 40 /ha, 4 h after contact | [1]; 40 /ha, 24 h after contact | [1]; 200 /ha, 0.25 h after contact | [1]; 200 /ha, 0.5 h after contact | [1]; 200 /ha, 1 h after contact | [1]; 200 /ha, 2 h after contact | [1]; 200 /ha, 3 h after contact | [1]; 200 /ha, 4 h after contact | [1]; 200 /ha, 24 h after contact | [1]; 1000 /ha, 0.25 h after contact | [1]; 1000 /ha, 0.5 h after contact | [1]; 1000 /ha, 1 h after contact | [1]; 1000 /ha, 2 h after contact | [1]; 1000 /ha, 3 h after contact | [1]; 1000 /ha, 4 h after contact | [1]; 1000 /ha, 24 h after contact

CC1(C)[C@H](C=C(Cl)Cl)[C@H]1C(=O)OCc1c(F)c(F)cc(F)c1F [Transfluthrin, (1R,3S)-3-(2,2-Dichlorovinyl)-2,2-dimethyl-1-cyclopropanecarboxylic acid (2,3,5,6-tetrafluorophenyl)methyl ester]
70%: [3]; 1.6 g/ha, 0.25 h after contact | [3]; 1.6 g/ha, 1 h after contact | [3]; 1.6 g/ha, 2 h after contact | [3]; 1.6 g/ha, 24 h after contact
100%: [2]; 200 g/ha, 0.25 h after contact | [2]; 200 g/ha, 0.5 h after contact | [3]; 8 g/ha, 0.5 h after contact | [3]; 8 g/ha, 1 h after contact | [3]; 8 g/ha, 3 h after contact | [3]; 40 g/ha, 0.25 h after contact | [3]; 40 g/ha, 0.5 h after contact | [3]; 40 g/ha, 1 h after contact | [3]; 40 g/ha, 2 h after contact | [3]; 40 g/ha, 3 h after contact | [3]; 40 g/ha, 4 h after contact | [3]; 40 g/ha, 24 h after contact | [3]; 200 g/ha, 0.25 h after contact | [3]; 200 g/ha, 0.5 h after contact | [3]; 200 g/ha, 1 h after contact | [3]; 200 g/ha, 2 h after contact | [3]; 200 g/ha, 3 h after contact | [3]; 200 g/ha, 4 h after contact | [3]; 200 g/ha, 24 h after contact
60%: [3]; 1.6 g/ha, 0.5 h after contact | [3]; 1.6 g/ha, 4 h after contact
65%: [3]; 1.6 g/ha, 3 h after contact
5%: [2]; [4] | [2]; [5] | [2]; 0.064 g/ha, 3 h after contact | [2]; 0.064 g/ha, 4 h after contact | [2]; [6] | [2]; 0.32 g/ha, 1 h after contact | [2]; 0.32 g/ha, 2 h after contact | [2]; 0.32 g/ha, 4 h after contact | [3]; [4]
90%: [3]; 8 g/ha, 0.25 h after contact | [3]; 8 g/ha, 2 h after contact | [3]; 8 g/ha, 4 h after contact | [3]; 8 g/ha, 24 h after contact
20%: [3]; [6] | [3]; 0.32 g/ha, 2 h after contact | [3]; 0.32 g/ha, 3 h after contact | [3]; 0.32 g/ha, 24 h after contact
30%: [3]; 0.32 g/ha, 1 h after contact
10%: [2]; 0.064 g/ha, 1 h after contact | [2]; 0.064 g/ha, 2 h after contact | [2]; 0.32 g/ha, 3 h after contact | [2]; 0.32 g/ha, 24 h after contact | [3]; 0.064 g/ha, 24 h after contact
0%: [2]; 0.32 g/ha, 0.5 h after contact | [3]; [5] | [3]; 0.064 g/ha, 1 h after contact | [3]; 0.064 g/ha, 2 h after contact | [3]; 0.064 g/ha, 3 h after contact | [3]; 0.064 g/ha, 4 h after contact
15%: [2]; 0.064 g/ha, 24 h after contact
25%: [3]; 0.32 g/ha, 0.5 h after contact | [3]; 0.32 g/ha, 4 h after contact
